Results reported in patent US4117121A, “Method of increasing bile flow and decreasing lipid levels” (Hoffmann-La Roche Inc., priority 1977, dated 1978).

Tests used:
[1] = system: triglyceride absorption; assay: Inhibition of absorption of dietary triglyceride after oral corn oil load; type: in vivo, rats
Procedure: The ability of compound A to inhibit the absorption of dietary triglyceride in rats is determined by analyzing the rise in serum triglycerides after an oral load of corn oil. To 24 hours fasted rats (6 per group), compound A was administered orally at 1.1 mmoles/kg 15 minutes before a single oral dose of corn oil ([…]). Blood samples (0.4 ml) were collected from the rat tail 0, 2, 4, 6, 8 and 24 hours after compound administration. Each rat is its own control. Plasma samples were analyzed for triglyceride content by the procedure set forth in Kessler and H. Lederer, Tehnicon Symposium 1965 Automation in Analytical Chemistry Ed. L. Skeggs, published Mediad Inc. N.Y. (1966)pp341. The data in Table V is expressed as mg% change in plasma triglyceride levels compared to zero time control values at each time interval. This change in plasma triglycerides was determined by calculating the difference between the triglyceride level at each time point compared to zero time control level.
The procedure of Example 4 was followed except groups of 4 were utilized. Compound B was administered.

[2] = system: bile flow; assay: Stimulation of bile flow (Example 1); type: in vivo, female albino rats (Charles River); details: 100 mg orally, over the Na-TC control
From the text: (§1) In these studies female albino rats (Charles River), weighing 300 ± 10 g were kept on a Purina chow diet ad libitum until the time of operation. […] This preparation enabled the production of lymph at a constant rate, the infusion of a bile salt, and the simultaneous collection of bile.
(§2) All animals received, after operation, a continuous duo denal infusion of sodium taurocholate (Na-TC) in 0.85% NaCl. One day after operation, the rats were given, by stomach intubation, an emulsion containing about 4% triolein, 20 μC of 4-^14 C-cholesterol (Specific Activity 61.7 mC/mM, 159 μC/mg), 2 mg of cholesterol, in addition to protein, carbohydrate, and saline. Both the Na-TC and the cholesterol carrier employed gave a single spot on either thin layer or glass fiber paper chromatograph so no further purification was attempted. The commercial glyceryl trioleate contained a large percentage of di- and monoolein. Triolein was, therefore, purified by passage through a silicic acid column; the final product gave a single spot on either glass fiber paper or thin layer chromatography.
(§3) To 4 ml of this emulsion was added 100 mg of either Na-TC (control group) or compounds A through D. This mixture was given orally to the animals.
(§4) The sampling of thoracic duct lymph and of bile was divided into two collecting periods, 0-8 and 9-24 h after emulsion administration.
In this table the results are expressed as the % increase in bile flow over the control.

[3] = system: intestinal absorbtion of CHOLESTEROL; assay: Intestinal absorption of cholesterol: appearance of 4-14C-cholesterol in thoracic duct lymph; type: in vivo, female albino rats (Charles River); details: 100 mg orally, vs Na-TC control, 14C-cholesterol in lymph; for % decrease of cholesterol, 0-8 hours: 0-8 hours after emulsion; for % decrease of cholesterol, 9-24 hours: 9-24 hours after emulsion
From the text: as §1, §2, §3, §4
Lymph specimens were lyophilized and the lipids in the residue were extracted with ethanol-isopropyl ether, 2:1 parts by volume, by procedure described in Gallo-Torres, et al; Biophys. Acta, 176 605-615 (1969). An aliquot of the lipid extract was placed on a small piece of glass fiber paper and counted. Another aliquot was used for the separation of cholesterol and its esters by glass fiber paper chromatography.
The effect of compounds A through D derivatives on the appearance of total ^14 C-cholesterol in the thoracic duct lymph of rats is summarized in Table I. Of the dose administered to the control animals, 5 × 10^5 dpm were recovered in the first 8 h and 3.4 × 10^6 dpm in the period of 9-24 h following administration of the emulsion. […] The tolerance of cholesterol in Table I is the % decrease in the 4-^14 C-cholesterol over the control appearing in the lymph during the specified period.

[4] = system: bile flow; assay: Comparative effect on bile flow (Example 2); type: in vivo, female rats; details: 100 mg intragastrically, vs average bile of two hours preceding treatment
Procedure: Female rats, weighing approximately 250 g, were fasted overnight prior to surgery; water was allowed ad libitum. The surgical procedures involving cannulation of the upper part of the common bile duct were carried out under Penthrane anesthesia. A catheter placed in the avascular part of the stomach was used for intragastric administration of emulsion; another catheter was placed in the duodenum. After surgery the rats were kept in restraining cages. Intraduodenal infusion of bile (collected previously from donors) was then started at the rate of 0.9 ml/hr. The infusion pressure was kept constant by means of a pump. Hydration was maintained by allowing the animals to drink saline ad libitum.
All rats were allowed~20 hours to recover from surgery. During this post-surgical period bile was collected in pooled samples of 16-18 hours. Having achieved steady hourly flow, the two samples obtained prior to the actual experiment were collected individually and considered as a control standard for each rat.
Bile samples were collected hourly, over a 24-hour period. The volume was measured to the nearest 0.1 ml.
The values in Table III were expressed for the purpose of the analysis, as a percent change from average bile collected in the two hours immediately preceding treatment.

[5] = target: T1, rat pancreatic lipase (Rattus norvegicus, UniProt P27657); assay: Inhibition of rat pancreatic lipase in vitro; type: biochemical; details: 14C-triolein emulsion, pH 8.6, 20 min at 37° C.
T1 sequence (P27657 17-465): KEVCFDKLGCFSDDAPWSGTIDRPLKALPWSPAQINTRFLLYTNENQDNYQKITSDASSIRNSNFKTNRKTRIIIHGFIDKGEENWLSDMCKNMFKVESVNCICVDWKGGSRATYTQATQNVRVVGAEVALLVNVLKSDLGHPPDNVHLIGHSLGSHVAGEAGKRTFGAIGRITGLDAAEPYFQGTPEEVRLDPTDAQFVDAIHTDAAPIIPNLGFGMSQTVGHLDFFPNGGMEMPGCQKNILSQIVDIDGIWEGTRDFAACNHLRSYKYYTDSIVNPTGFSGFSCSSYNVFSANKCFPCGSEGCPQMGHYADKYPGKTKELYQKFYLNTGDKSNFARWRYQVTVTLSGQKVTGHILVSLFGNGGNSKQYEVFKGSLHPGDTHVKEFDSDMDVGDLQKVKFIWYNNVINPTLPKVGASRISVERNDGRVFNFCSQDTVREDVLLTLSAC
Procedure: Dietary long-chain triglycerides must be hydrolyzed by pancreatic lipase in the duodenum before absorption can occur. […] The capacity of compounds B and C to inhibit rat pancreatic lipase in vitro was investigated. The ability of compounds to inhibit rat pancreatic lipase is determined by analyzing the nmoles of free fatty acid [oleic acid] released from [^14 C]-triolein. Compounds of B and C are added to an emulsion consisting of: 200,000 dpm ^14 C-triolein, 7.5 mg triolein, 0.75 mg sodium taurocholate, 15 mg bovine serum albumin and 0.9 ml 0.2 M tris-HCl - 0.15 M NaCl, pH 8.6, per assay. Water and/or pancreatic lipase is added to make an assay volume of 1.0 ml. The emulsion is incubated for 20 min at 37° C. in a shaking water bath. The reaction is stopped by the addition of isopropanol; H2 SO4 (40:1). The lipids are extracted twice with 3 ml volumes of hexane. The liberated fatty acids are extracted with 2 ml of 0.1 N KOH in 50% methanol. A 1 ml aliquot of the KOH layer is placed in a scintillation vial with 10 ml of 2,5-bis-2- (5-tertiarybutyl benzoxazolyl)thiophene. The radioactivity is determined in a scintillation counter. Data are expressed as nmoles free fatty acid [oleic acid] released.

[6] = system: cholesterol-7α-hydroxylase; assay: Effect on activity of cholesterol-7α-hydroxylase; details: in words

Compound	% increase of Bile Flow, 0-8 hours [2]	% increase of Bile Flow, 9-24 hours [2]	% decrease of cholesterol, 0-8 hours [3]	% decrease of cholesterol, 9-24 hours [3]	% increase in Bile Flow, 0-12 hours [4]	% increase in Bile Flow, 13-24 hours [4]	% increase in Bile Flow, overall 24 hour period [4]	other results
C[C@]12CC[C@@H](O)C[C@H]1CC[C@@H]1[C@@H]2C[C@H](O)[C@]2(C)[C@@H](C(=O)O)CC[C@@H]12 [Compound A, 3α, 12α-dihydroxy-etiocholane-17β-carboxylicacid]	+18%	-3%	0%	79%	+286%	+79%	+365%	Change in Plasma Triglyceride Levels, 4 hr ([1]; 4 hr, 1.1 mmoles/kg orally, 15 minutes before corn oil, 6 per group, vs zero time): 50 ± 13 mg%; Change in Plasma Triglyceride Levels, 6 hr ([1]; 6 hr, 1.1 mmoles/kg orally, 15 minutes before corn oil, 6 per group, vs zero time): 113 ± 34 mg%; Change in Plasma Triglyceride Levels, 8 hr ([1]; 8 hr, 1.1 mmoles/kg orally, 15 minutes before corn oil, 6 per group, vs zero time, *p<0.05): 164 ± 40 mg%; Change in Plasma Triglyceride Levels, 24 hr ([1]; 24 hr, 1.1 mmoles/kg orally, 15 minutes before corn oil, 6 per group, vs zero time): 83 ± 11 mg%; Change in Plasma Triglyceride Levels, 2 hr ([1]; po, 1100 umol/kg): 37 ± 9 mg%
C[C@H](CC(=O)O)[C@H]1CC[C@H]2[C@@H]3CC[C@@H]4C[C@H](O)CC[C@]4(C)[C@H]3C[C@H](O)[C@]12C [Compound C, 3α, 12α-dihydroxy-5-β-norcholanic acid]	+4%	+30%	40%	53%				Ki [5]: 1 mM
C[C@H](C(=O)O)[C@H]1CC[C@H]2[C@@H]3CC[C@@H]4C[C@H](O)CC[C@]4(C)[C@H]3C[C@H](O)[C@]12C [Compound B, 3α, 12α-dihydroxy-5β-23,24-bisnorcholanic acid]	+38%	+47%	0%	0%	+517%	+113%	+630%	Change in Plasma Triglycerides, 2 hr ([1]; Example 5, 2 hr, procedure of Example 4, groups of 4): -3 mg%; Change in Plasma Triglycerides, 4 hr ([1]; Example 5, 4 hr, procedure of Example 4, groups of 4): 7 mg%; Change in Plasma Triglycerides, 6 hr ([1]; Example 5, 6 hr, procedure of Example 4, groups of 4): 15 mg%; Change in Plasma Triglycerides, 8 hr ([1]; Example 5, 8 hr, procedure of Example 4, groups of 4): 54 mg%; Change in Plasma Triglycerides, 24 hr ([1]; Example 5, 24 hr, procedure of Example 4, groups of 4): 30 mg%; Ki [5]: 14 mM
C[C@H](CCC(=O)O)[C@H]1CC[C@H]2[C@@H]3[C@H](O)C[C@@H]4C[C@H](O)CC[C@]4(C)[C@H]3CC[C@]12C [CDC, chenodeoxycholic acid]					+504%	+9%	+513%	
C[C@H](CCO)[C@H]1CC[C@H]2[C@@H]3CC[C@@H]4C[C@H](O)CC[C@]4(C)[C@H]3C[C@H](O)[C@]12C [Compound D, 3α, 12α, 23-trihydroxy-5β-24-norcholane]	+22%	+14%	84%	44%				
C[C@H](CCC(=O)O)[C@H]1CC[C@H]2[C@@H]3[C@H](O)C[C@@H]4C[C@H](O)CC[C@]4(C)[C@H]3C[C@H](O)[C@]12C [cholic acid, 3α, 7α, 12α-trihydroxy-5β-cholanic acid]					+161%		+38%	effect on the activity of cholesterol-7α-hydroxylase [6]: adverse effect
C[C@H](CCC(=O)O)[C@H]1CC[C@H]2[C@@H]3CC[C@@H]4C[C@H](O)CC[C@]4(C)[C@H]3C[C@H](O)[C@]12C [deoxycholic acid, 3α, 12α-dihydroxy-5β-cholanic acid]					+335%		+219%	effect on the activity of cholesterol-7α-hydroxylase [6]: adverse effect
